Measured values published in patent US11248254B2, “Method and system employing distinguishable polymerases for detecting ternary complexes and identifying cognate nucleotides” (Omniome, Inc., priority 2016, dated 2022).

Experiments:
Assay type in all cases: binding
[1] = system: tested polymerases with primed template nucleic acid; test: Discrimination between correct and incorrect nucleotides at higher metal cation concentration; details: cation greater than about 5 mM; 150 mM to 300 mM monovalent metal cations
[2] = target: T1, Bsu DNA polymerase large fragment with primed template nucleic acid (Bacillus subtilis, UniProt O34996); test: Biolayer interferometry: discrimination between ternary (cognate dCTP) and binary (non-cognate dGTP) complex formation, KCl titration; details: 2 mM stabilizing cation, KCl 100-650 mM, potassium glutamate 80-640 mM (FIGS. 3, 4)
T1 construct: 350 U/ml Bsu DNA polymerase large fragment
T1 sequence (O34996 297-880 limits assumed): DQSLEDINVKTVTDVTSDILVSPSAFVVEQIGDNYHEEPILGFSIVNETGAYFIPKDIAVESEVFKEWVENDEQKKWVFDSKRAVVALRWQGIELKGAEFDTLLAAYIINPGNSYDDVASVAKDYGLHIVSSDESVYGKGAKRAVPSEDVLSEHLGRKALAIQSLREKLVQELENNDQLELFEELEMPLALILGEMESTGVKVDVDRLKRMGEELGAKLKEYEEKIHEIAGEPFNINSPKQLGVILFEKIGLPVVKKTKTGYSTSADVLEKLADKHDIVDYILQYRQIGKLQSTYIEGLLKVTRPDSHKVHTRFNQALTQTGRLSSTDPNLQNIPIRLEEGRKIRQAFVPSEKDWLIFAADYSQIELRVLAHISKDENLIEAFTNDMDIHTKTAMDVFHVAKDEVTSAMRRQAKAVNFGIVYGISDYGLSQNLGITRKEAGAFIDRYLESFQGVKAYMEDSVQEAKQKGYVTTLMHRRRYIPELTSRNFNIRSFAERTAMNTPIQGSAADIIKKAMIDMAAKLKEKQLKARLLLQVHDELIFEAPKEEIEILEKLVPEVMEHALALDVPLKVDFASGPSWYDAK
Description: Materials and methods used in the procedure were as follows. The FORTEBIO® OCTET® instrument employing biolayer interferometry was used to measure binding reactions at the surface of a fiber optic tip in a multiwell plate format to investigate differential formation of binary and ternary complexes. Template strands biotinylated at their 5′-ends were used to immobilize the primed template nucleic acid onto fiber optic tips functionalized with streptavidin (SA) according to standard procedures. The next correct nucleotide for the biotinylated template DNA was dCTP (with dGTP being used as the model incorrect nucleotide). Tips were first equilibrated in a Tris-buffered solution containing 30 mM Tris-HCl (pH 8.0), and 0.1 mM EDTA before commencing the cycling protocol. […] When using a single contacting step to effect binding of polymerase and nucleotide to the primed template nucleic acid, the binding step was 60 seconds long, with binding interactions being monitored continuously. […] Results from interferometry monitoring were analyzed to identify formation of ternary complexes (i.e., identifying cognate nucleotide) or binary complexes (i.e., identifying non-cognate nucleotide).

[3] = target: T2, ternary complex of primed template nucleic acid, Bst DNA polymerase large fragment and cognate nucleotide (Geobacillus stearothermophilus, UniProt P52026); test: Biolayer interferometry: formation and retention of ternary complexes with different non-catalytic metal ions; details: 2 mM test metal ion; for ternary complex binding signal following a wash step, expressed as a percentage of the maximum signal: wash in absence of non-bound polymerase, baseline = signal at initial nucleotide contact; for ternary complex decay / stability following washing: wash without polymerase, 10 μM correct dNTP, 100 μM incorrect dNTP, 300 s (FIG. 2); for binding signal when ternary complexes formed on primed template nucleic acid: 100 μM correct nucleotide, 200 nM Bst polymerase, 60 s binding (FIG. 2)
T2 construct: 200 nM unlabeled Bst DNA polymerase large fragment
T2 sequence (P52026 289-876 limits assumed): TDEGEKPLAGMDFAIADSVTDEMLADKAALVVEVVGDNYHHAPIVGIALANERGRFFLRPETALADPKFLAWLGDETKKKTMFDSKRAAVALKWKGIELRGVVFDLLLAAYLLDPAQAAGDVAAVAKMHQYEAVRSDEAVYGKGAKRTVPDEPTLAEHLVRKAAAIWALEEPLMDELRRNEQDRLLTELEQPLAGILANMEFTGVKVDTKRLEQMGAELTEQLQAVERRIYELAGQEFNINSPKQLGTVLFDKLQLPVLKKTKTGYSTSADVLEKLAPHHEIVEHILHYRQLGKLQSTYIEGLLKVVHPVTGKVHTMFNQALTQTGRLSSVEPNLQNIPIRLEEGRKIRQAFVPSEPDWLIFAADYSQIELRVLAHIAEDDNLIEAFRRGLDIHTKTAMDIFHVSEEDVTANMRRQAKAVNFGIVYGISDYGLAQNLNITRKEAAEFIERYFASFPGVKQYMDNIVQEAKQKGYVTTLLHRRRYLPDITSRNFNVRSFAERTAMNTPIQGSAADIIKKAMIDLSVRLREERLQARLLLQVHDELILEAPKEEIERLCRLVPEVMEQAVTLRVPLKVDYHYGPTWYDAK
Description: A FORTEBIO® (Menlo Park, Calif.) Octet instrument employing biolayer interferometry to measure binding reactions at the surface of a fiber optic tip was used in a multiwell plate format to assess formation and stability of ternary complexes in the presence of different non-catalytic metal ions. Template nucleic acid strands biotinylated at their 5′-ends were used to immobilize the primed template nucleic acid onto fiber optic tips functionalized with streptavidin (SA) according to standard procedures. Tips were washed in a Tris-buffered solution containing 200 mM KCl, 160 mM potassium glutamate, and 0.01% Tween-20 before commencing the cycling protocol. Binding reactions conducted using 2 mM of the test metal ion (i.e., 2 mM of the metal salt) were carried out in serial fashion using examination buffers that contained Tris-HCl (pH 8.0), 220 mM KCl, 160 mM potassium glutamate, 0.01% Tween-20, 1 mM β-mercaptoethanol, 100 μg/ml BSA, the correct nucleotide at a concentration of 100 μM, and 200 nM unlabeled Bst DNA polymerase large fragment. Salts used in the testing procedure included: SrCl2, Na3VO4, EuCl3, and CuSO4. Examination buffers in this procedure were supplemented with DMSO and betaine to control DNA secondary structure. Binding steps were carried out for 60 seconds, and were followed by wash steps using a buffer that omitted polymerase, but included 10 μM of the correct dNTP, 100 μM of the incorrect dNTP, and 2 mM of the test metal ion. Retention of the ternary complex was measured over the course of 300 seconds. Surviving ternary complexes were stripped from the primed template by exposure to a solution containing 30 mM Tris-HCl (pH 8.0), 1 M NaCl, 4 mM EDTA, 4 mM DTPA, 0.2% SDS, 0.05% Tween-20, and 3% Tween-80 for a period of 30 seconds. This was followed by exposure to a regeneration solution made Tris-HCl (pH 8.0), 220 mM KCl, 160 mM potassium glutamate, 0.01% Tween-20, 1 mM β-mercaptoethanol, 100 μg/ml BSA for 20 seconds before commencing binding of polymerase and cognate nucleotide in the presence of the next test metal ion.

| Structure (SMILES) | ability of polymerase to discriminate between correct and incorrect nucleotides [1] | discrimination between ternary and binary complex formation [2] | ternary complex binding signal following a wash step, expressed as a percentage of the maximum signal [3] | ternary complex decay / stability following washing [3] | binding signal when ternary complexes formed on primed template nucleic acid [3] |
| --- | --- | --- | --- | --- | --- |
| [Tb+3] [Tb^3+] | reduced abilities to discriminate between correct and incorrect nucleotides | good discrimination between ternary and binary complex formation was achievable | substantially similar to trials conducted using Eu^3+ cations | substantially similar to the use of Eu^3+ ions | – |
| O=S(=O)([O-])[O-].[Cu+2] [Cu^2+, CuSO4] | – | – | – | rapid decay | moderately high binding signals |
| [Cl-].[Cl-].[Sr+2] [Sr^2+, SrCl2] | This was not the case | – | about 40% | slower than observed with V^5+ and Cu^2+ ions | high binding signals |
| [Ni+2] [Ni^2+] | This was not the case | – | – | – | – |
| [Cl][Eu]([Cl])[Cl] [Eu^3+, EuCl3] | reduced abilities to discriminate between correct and incorrect nucleotides | good discrimination between ternary and binary complex formation was achievable | about 80% | substantially more stable | high binding signals |
| [Na+].[Na+].[Na+].[O]=[V]([O-])([O-])[O-] [V^5+, Na3VO4] | – | – | – | rapid decay | moderately high binding signals |
